Experimental data from the NIST ThermoML archive (doi:10.1016/j.fluid.2018.07.027).
± gives the expanded uncertainty stated by the source.

Experiments:
[1] = xn = mol fraction of the nth substance listed; settings: 298.15 K, 101.3 kPa, Liquid; for speed of sound: Frequency=3 MHz, Single path-length method; for mass density: Vibrating tube method
[2] = refractive index (Na D-line) (dimensionless); xn = mol fraction of the nth substance listed; settings: 298.15 K, 101.3 kPa, Liquid, Standard Abbe refractometry
[3] = 298.15 K, 101.33 kPa, Liquid; for speed of sound: Single path-length method; for mass density: Vibrating tube method
[4] = refractive index (Na D-line) (dimensionless); settings: 298.15 K; 101.33 kPa; Liquid; Standard Abbe refractometry
[5] = Boiling temperature at pressure P; settings: 101.3 kPa; Liquid; Ebulliometric method (Recirculating still)

`CC(C)CC(C)(C)C` [2,2,4-trimethylpentane] + CCCCO gave a speed of sound ([1]; x1 = 0.0518) of 1223.4 ± 1.2 m/s, a speed of sound ([1]; x1 = 0.1022) of 1208.3 ± 1.2 m/s and a speed of sound ([1]; x1 = 0.1512) of 1194.3 ± 1.1 m/s. For the same compound, the speed of sound ([1]; x1 = 0.2028) was 1181.5 ± 1.1 m/s, the speed of sound ([1]; x1 = 0.2535) was 1169.4 ± 1.1 m/s and the speed of sound ([1]; x1 = 0.3042) was 1157.9 ± 1.1 m/s. The speed of sound ([1]; x1 = 0.3535) was 1148.6 ± 1.1 m/s, the speed of sound ([1]; x1 = 0.4049) was 1139.1 ± 1.1 m/s and the speed of sound ([1]; x1 = 0.4534) was 1130.8 ± 1.1 m/s. For the same compound, the speed of sound ([1]; x1 = 0.5032) was 1123.4 ± 1.1 m/s, the speed of sound ([1]; x1 = 0.5534) was 1116.6 ± 1.1 m/s and the speed of sound ([1]; x1 = 0.6041) was 1110.3 ± 1.1 m/s. The speed of sound ([1]; x1 = 0.6558) was 1104.5 ± 1.1 m/s, the speed of sound ([1]; x1 = 0.7046) was 1099.6 ± 1.1 m/s and the speed of sound ([1]; x1 = 0.7521) was 1095.4 ± 1.1 m/s. The speed of sound ([1]; x1 = 0.8047) was 1091.1 ± 1.1 m/s, the speed of sound ([1]; x1 = 0.8521) was 1087.9 ± 1.1 m/s and the speed of sound ([1]; x1 = 0.9005) was 1085.1 ± 1.1 m/s. It also gave a speed of sound ([1]; x1 = 0.9502) of 1082.8 ± 1.1 m/s, a speed of sound ([1]; x1 = 1) of 1082.8 ± 1.1 m/s and a mass density ([1]; x1 = 0.0518) of 795.39 ± 0.93 kg/m3. For the same compound, the mass density ([1]; x1 = 0.1022) was 785.94 ± 0.93 kg/m3, the mass density ([1]; x1 = 0.1512) was 777.34 ± 0.93 kg/m3 and the mass density ([1]; x1 = 0.2028) was 768.9 ± 0.92 kg/m3. It also gave a mass density ([1]; x1 = 0.2535) of 761.12 ± 0.92 kg/m3, a mass density ([1]; x1 = 0.3042) of 753.81 ± 0.92 kg/m3 and a mass density ([1]; x1 = 0.3535) of 747.12 ± 0.92 kg/m3. For the same compound, the mass density ([1]; x1 = 0.4049) was 740.56 ± 0.92 kg/m3, the mass density ([1]; x1 = 0.4534) was 734.72 ± 0.92 kg/m3 and the mass density ([1]; x1 = 0.5032) was 729.09 ± 0.92 kg/m3. It also gave a mass density ([1]; x1 = 0.5534) of 723.73 ± 0.92 kg/m3, a mass density ([1]; x1 = 0.6041) of 718.63 ± 0.92 kg/m3 and a mass density ([1]; x1 = 0.6558) of 713.71 ± 0.92 kg/m3. For the same compound, the mass density ([1]; x1 = 0.7046) was 709.35 ± 0.92 kg/m3, the mass density ([1]; x1 = 0.7521) was 705.31 ± 0.92 kg/m3 and the mass density ([1]; x1 = 0.8047) was 701.05 ± 0.92 kg/m3. For the same compound, the mass density ([1]; x1 = 0.8521) was 697.48 ± 0.92 kg/m3, the mass density ([1]; x1 = 0.9005) was 694.03 ± 0.92 kg/m3 and the mass density ([1]; x1 = 0.9502) was 690.74 ± 0.92 kg/m3. For the same compound, the mass density ([1]; x1 = 1) was 687.79 ± 0.91 kg/m3, the refractive index ([2]; x1 = 0.0518) was 1.39663 ± 0.00033 and the refractive index ([2]; x1 = 0.1022) was 1.39603 ± 0.00033. It also gave a refractive index ([2]; x1 = 0.1512) of 1.39545 ± 0.00033, a refractive index ([2]; x1 = 0.2028) of 1.39484 ± 0.00033 and a refractive index ([2]; x1 = 0.2535) of 1.39426 ± 0.00033. The refractive index ([2]; x1 = 0.3042) was 1.39372 ± 0.00033, the refractive index ([2]; x1 = 0.3535) was 1.39318 ± 0.00033 and the refractive index ([2]; x1 = 0.4049) was 1.39266 ± 0.00033. For the same compound, the refractive index ([2]; x1 = 0.4534) was 1.39218 ± 0.00033, the refractive index ([2]; x1 = 0.5032) was 1.39173 ± 0.00033 and the refractive index ([2]; x1 = 0.5534) was 1.39128 ± 0.00033. The refractive index ([2]; x1 = 0.6041) was 1.39088 ± 0.00033, the refractive index ([2]; x1 = 0.6558) was 1.3905 ± 0.00033 and the refractive index ([2]; x1 = 0.7046) was 1.39016 ± 0.00033. For the same compound, the refractive index ([2]; x1 = 0.7521) was 1.38988 ± 0.00033, the refractive index ([2]; x1 = 0.8047) was 1.38958 ± 0.00033 and the refractive index ([2]; x1 = 0.8521) was 1.38934 ± 0.00033. The refractive index ([2]; x1 = 0.9005) was 1.38914 ± 0.00033, the refractive index ([2]; x1 = 0.9502) was 1.38897 ± 0.00033 and the refractive index ([2]; x1 = 1) was 1.38898 ± 0.00033.
Compound `CC(C)CC(C)(C)C` [2,2,4-trimethylpentane] has a speed of sound [3] of 1082.8 ± 1.1 m/s, a mass density [3] of 687.824 ± 0.92 kg/m3 and a refractive index [4] of 1.38898 ± 0.00033. The “Boiling temperature at pressure P” value [5] was 99.01 ± 0.05 °C.
In the case of `CCCCO` [butan-1-ol], the speed of sound [3] is reported as 1240.1 ± 1.1 m/s, the mass density [3] is reported as 805.769 ± 0.91 kg/m3 and the refractive index [4] is reported as 1.39725 ± 0.00033.
With `CCCCO` [butan-1-ol] + CC(C)CC(C)(C)C the speed of sound ([1]; x2 = 0) was 1240.1 ± 1.1 m/s, the mass density ([1]; x2 = 0) was 805.78 ± 0.91 kg/m3 and the refractive index ([2]; x2 = 0) was 1.39725 ± 0.00033.
Work on `CC(C)CC(C)(C)C` [2,2,4-trimethylpentane] + CCCCOCCCC yielded a speed of sound ([1]; x1 = 1) of 1082.6 ± 1.1 m/s, a mass density ([1]; x1 = 1) of 687.71 ± 0.91 kg/m3 and a refractive index ([2]; x1 = 1) of 1.38898 ± 0.00033.
